Results taken from paper PMC12649549, “Sequence Permutation Generated Lysine and Tryptophan-Rich Antimicrobial Peptides with Enhanced Therapeutic Index” (Antibiotics, 2025).
Like-named read-outs stand apart in the source and are kept apart here.

How the values were obtained:
[1] = system: A. baumannii 14B00100 (Acinetobacter sp., BCRC number 14B0100)
In short: (§1)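 MICs came from CLSI broth microdilution, with 5 × 10^5 CFU/mL bacteria exposed to peptide at final 0.78–50 µg/mL. Media were MH broth or LYM broth (pH 7.4), the latter also adjusted for salt (NaCl 50–300 mM, MgCl2 0.5–2.5 mM) or acidity (pH 4.5–6.5); triplicate independent experiments.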

[2] = system: S. aureus ATCC 33593
In short: as §1

[3] = system: S. aureus ATCC 33592
In short: as §1

[4] = system: Gram-negative bacteria; assay: Geometric mean MIC and therapeutic index, Gram-negative bacteria; type: cell-based; details: Gram-negative bacteria; for GM G− (geometric mean of the MIC values): MH broth, MIC >50 µg/mL counted as 100 µg/mL; for Therapeutic Index (TI) G−: HC10/GM
In short: (§2)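 Overnight MH cultures were regrown and diluted to 5 × 10^5 CFU/mL, then exposed to peptides at 0.78–50 µg/mL final in MH or modified LYM broth following CLSI microdilution. MICs were combined into geometric means, and TI was computed as HC10 (human red blood cells) divided by GM.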

[5] = system: Gram-positive bacteria; assay: Geometric mean MIC and therapeutic index, Gram-positive bacteria; type: cell-based; details: Gram-positive bacteria; for GM G+ (geometric mean of the MIC values): MH broth, MIC >50 µg/mL counted as 100 µg/mL; for Therapeutic Index (TI) G+: HC10/GM
In short: as §2

[6] = system: Both Gram-positive and -negative bacteria; assay: Geometric mean MIC, therapeutic index and fold changes of MIC, whole panel of strains; type: cell-based; details: for GM G−/+ (geometric mean of the MIC values): Both Gram-positive and -negative bacteria, MIC >50 µg/mL counted as 100 µg/mL; for Therapeutic Index (TI) G−/+: HC10/GM, both Gram-positive and -negative bacteria
In short: as §2

[7] = LYM broth, 0 mM NaCl, 16 h, 37 °C
[8] = LYM broth, 50 mM NaCl, 16 h, 37 °C
[9] = LYM broth, 100 mM NaCl, 16 h, 37 °C
[10] = LYM broth, 200 mM (NaCl), 16 h, 37 °C
[11] = LYM broth, 300 mM (NaCl), 16 h, 37 °C
[12] = MH broth, 5 × 10^5 CFU/mL, 16 h, 37 °C, repeated three times

Work on Ac-KWRKWLKWLAKKK-NH2 [Peptide W5K01] yielded an MIC [1, 7] of 1.56 µg/mL, an MIC ([1]; LYM broth, 0.5 mM MgCl2) of 1.56 µg/mL and an MIC ([1]; LYM broth, 1.5 mM MgCl2) of 1.56 µg/mL. For the same substance, the MIC ([1]; LYM broth, 2.5 mM MgCl2) was 3.13 µg/mL, the MIC [1, 8] was 1.56 µg/mL and the MIC [1, 9] was 3.13 µg/mL. For the same substance, the MIC [1, 10] was 3.13 µg/mL, the MIC [1, 11] was 6.25 µg/mL and the MIC ([1]; LYM broth, pH 4.5) was 1.56 µg/mL. It also gave an MIC ([1]; LYM broth, pH 5.5) of 1.56 µg/mL, an MIC ([1]; LYM broth, pH 6.5) of 1.56 µg/mL and an MIC [1, 12] of 6.25 µg/mL. The MIC [2, 7] was 6.25 µg/mL, the MIC ([2]; LYM broth, 0.5 mM MgCl2) was 6.25 µg/mL and the MIC ([2]; LYM broth, 1.5 mM MgCl2) was 6.25 µg/mL. It also gave an MIC ([2]; LYM broth, 2.5 mM MgCl2) of 6.25 µg/mL, an MIC [2, 8] of 6.25 µg/mL and an MIC [2, 9] of 12.5 µg/mL. For the same substance, the MIC [2, 10] was 25 µg/mL, the MIC [2, 11] was 50 µg/mL and the MIC ([2]; LYM broth, pH 4.5) was 6.25 µg/mL. The MIC ([2]; LYM broth, pH 5.5) was 3.13 µg/mL, the MIC ([2]; LYM broth, pH 6.5) was 3.13 µg/mL and the MIC [2, 12] was 50 µg/mL. For the same substance, the MIC [3, 7] was 6.25 µg/mL, the MIC ([3]; LYM broth, 0.5 mM MgCl2) was 6.25 µg/mL and the MIC ([3]; LYM broth, 1.5 mM MgCl2) was 6.25 µg/mL. The MIC ([3]; LYM broth, 2.5 mM MgCl2) was 12.5 µg/mL, the MIC [3, 8] was 6.25 µg/mL and the MIC [3, 9] was 12.5 µg/mL. It also gave an MIC [3, 10] of 25 µg/mL, an MIC [3, 11] of 50 µg/mL and an MIC ([3]; LYM broth, pH 4.5) of 6.25 µg/mL. For the same substance, the MIC ([3]; LYM broth, pH 5.5) was 6.25 µg/mL, the MIC ([3]; LYM broth, pH 6.5) was 6.25 µg/mL and the MIC [3, 12] was 50 µg/mL. The “GM G− (geometric mean of the MIC values)” value [4] was 8.2 µg/mL, the “Therapeutic Index (TI) G−” value [4] was 8.6 and the “GM G+ (geometric mean of the MIC values)” value [5] was 28.7 µg/mL. The “Therapeutic Index (TI) G+” value [5] was 2.5, the “GM G−/+ (geometric mean of the MIC values)” value (from here on “GM G−/+”) ([6]; MH broth) was 15.4 µg/mL and the “Therapeutic Index (TI) G−/+” value [6] was 4.6. The “weakening of bactericidal efficacy (MIC)” value ([6]; LYM broth, 2.5 mM MgCl2) was 4 fold and the “folds higher MIC values than W5KA9W” value ([6]; MH broth, in most bacteria strains) was 2–4 fold.

Ac-LAKKKKWRKWLKW-NH2 [Peptide W5K09] showed an MIC [1, 7] of 3.13 µg/mL, an MIC ([1]; LYM broth, 0.5 mM MgCl2) of 3.13 µg/mL and an MIC ([1]; LYM broth, 1.5 mM MgCl2) of 3.13 µg/mL. It also gave an MIC ([1]; LYM broth, 2.5 mM MgCl2) of 3.13 µg/mL, an MIC [1, 8] of 3.13 µg/mL and an MIC [1, 9] of 6.25 µg/mL. The MIC [1, 10] was 25 µg/mL, the MIC [1, 11] was >50 µg/mL and the MIC ([1]; LYM broth, pH 4.5) was 3.13 µg/mL. For the same substance, the MIC ([1]; LYM broth, pH 5.5) was 1.56 µg/mL, the MIC ([1]; LYM broth, pH 6.5) was 1.56 µg/mL and the MIC [1, 12] was 50 µg/mL. For the same substance, the MIC [2, 7] was 25 µg/mL, the MIC ([2]; LYM broth, 0.5 mM MgCl2) was 25 µg/mL and the MIC ([2]; LYM broth, 1.5 mM MgCl2) was 25 µg/mL. The MIC ([2]; LYM broth, 2.5 mM MgCl2) was 50 µg/mL, the MIC [2, 8] was 25 µg/mL and the MIC [2, 9] was 50 µg/mL. For the same substance, the MIC [2, 10] was >50 µg/mL, the MIC [2, 11] was >50 µg/mL and the MIC ([2]; LYM broth, pH 4.5) was 25 µg/mL. For the same substance, the MIC ([2]; LYM broth, pH 5.5) was 25 µg/mL, the MIC ([2]; LYM broth, pH 6.5) was 12.5 µg/mL and the MIC [2, 12] was >50 µg/mL. It also gave an MIC [3, 7] of 25 µg/mL, an MIC ([3]; LYM broth, 0.5 mM MgCl2) of 25 µg/mL and an MIC ([3]; LYM broth, 1.5 mM MgCl2) of 25 µg/mL. For the same substance, the MIC ([3]; LYM broth, 2.5 mM MgCl2) was 50 µg/mL, the MIC [3, 8] was 25 µg/mL and the MIC [3, 9] was 50 µg/mL. The MIC [3, 10] was 50 µg/mL, the MIC [3, 11] was >50 µg/mL and the MIC ([3]; LYM broth, pH 4.5) was 25 µg/mL. For the same substance, the MIC ([3]; LYM broth, pH 5.5) was 12.5 µg/mL, the MIC ([3]; LYM broth, pH 6.5) was 12.5 µg/mL and the MIC [3, 12] was >50 µg/mL. The “GM G− (geometric mean of the MIC values)” value [4] was 33.0 µg/mL, the “Therapeutic Index (TI) G−” value [4] was 3.3 and the “GM G+ (geometric mean of the MIC values)” value [5] was 75.8 µg/mL. For the same substance, the “Therapeutic Index (TI) G+” value [5] was 1.4, the “GM G−/+” value ([6]; MH broth) was 50.0 µg/mL and the “Therapeutic Index (TI) G−/+” value [6] was 2.2.

With Ac-LKWLAKKKKWRKW-NH2 [Peptide W5K06] the MIC [1, 7] was 3.13 µg/mL, the MIC ([1]; LYM broth, 0.5 mM MgCl2) was 3.13 µg/mL and the MIC ([1]; LYM broth, 1.5 mM MgCl2) was 3.13 µg/mL. The MIC ([1]; LYM broth, 2.5 mM MgCl2) was 3.13 µg/mL, the MIC [1, 8] was 3.13 µg/mL and the MIC [1, 9] was 6.25 µg/mL. For the same substance, the MIC [1, 10] was 25 µg/mL, the MIC [1, 11] was >50 µg/mL and the MIC ([1]; LYM broth, pH 4.5) was 3.13 µg/mL. It also gave an MIC ([1]; LYM broth, pH 5.5) of 3.13 µg/mL, an MIC ([1]; LYM broth, pH 6.5) of 1.56 µg/mL and an MIC [1, 12] of 50 µg/mL. For the same substance, the MIC [2, 7] was 12.5 µg/mL, the MIC ([2]; LYM broth, 0.5 mM MgCl2) was 12.5 µg/mL and the MIC ([2]; LYM broth, 1.5 mM MgCl2) was 25 µg/mL. For the same substance, the MIC ([2]; LYM broth, 2.5 mM MgCl2) was 25 µg/mL, the MIC [2, 8] was 25 µg/mL and the MIC [2, 9] was 50 µg/mL. For the same substance, the MIC [2, 10] was >50 µg/mL, the MIC [2, 11] was >50 µg/mL and the MIC ([2]; LYM broth, pH 4.5) was 12.5 µg/mL. The MIC ([2]; LYM broth, pH 5.5) was 6.25 µg/mL, the MIC ([2]; LYM broth, pH 6.5) was 6.25 µg/mL and the MIC [2, 12] was >50 µg/mL. The MIC [3, 7] was 12.5 µg/mL, the MIC ([3]; LYM broth, 0.5 mM MgCl2) was 12.5 µg/mL and the MIC ([3]; LYM broth, 1.5 mM MgCl2) was 25 µg/mL. It also gave an MIC ([3]; LYM broth, 2.5 mM MgCl2) of 25 µg/mL, an MIC [3, 8] of 25 µg/mL and an MIC [3, 9] of 50 µg/mL. For the same substance, the MIC [3, 10] was >50 µg/mL, the MIC [3, 11] was >50 µg/mL and the MIC ([3]; LYM broth, pH 4.5) was 12.5 µg/mL. For the same substance, the MIC ([3]; LYM broth, pH 5.5) was 12.5 µg/mL, the MIC ([3]; LYM broth, pH 6.5) was 6.25 µg/mL and the MIC [3, 12] was >50 µg/mL. For the same substance, the “GM G− (geometric mean of the MIC values)” value [4] was 43.5 µg/mL, the “Therapeutic Index (TI) G−” value [4] was 2.5 and the “GM G+ (geometric mean of the MIC values)” value [5] was 75.8 µg/mL. The “Therapeutic Index (TI) G+” value [5] was 1.4, the “GM G−/+” value ([6]; MH broth) was 57.4 µg/mL and the “Therapeutic Index (TI) G−/+” value [6] was 1.9.
